This is an account of results in patent US20260015358A1, “BICYCLIC DERIVATIVES, COMPOSITIONS AND USES THEREOF” (Danatlas Pharmaceuticals Co., Ltd., priority 2023, published 2026).

Experiment [1] addresses T1, WRN [UniPro: Q14191 (WRN_HUMAN), N500-C946] (Homo sapiens (Human), UniProt Q14191). The experiment is described as follows: WRN ATPase assay (ADP-Glo). The experiment is classed as biochemical. The conditions noted are these: WRN enzymatic activity assay. (In general: ADP-Glo first removes unused ATP, then detects ADP through luciferase.)
The target in experiment [2] is T1, WRN [UniPro: Q14191 (WRN_HUMAN), N500-C946]. The experiment is described as follows: WRN unwinding assay (FORKF DNA, fluorescence). The experiment is classed as biochemical. The note with it: Table 14.

T1 sequence (Q14191 500-946): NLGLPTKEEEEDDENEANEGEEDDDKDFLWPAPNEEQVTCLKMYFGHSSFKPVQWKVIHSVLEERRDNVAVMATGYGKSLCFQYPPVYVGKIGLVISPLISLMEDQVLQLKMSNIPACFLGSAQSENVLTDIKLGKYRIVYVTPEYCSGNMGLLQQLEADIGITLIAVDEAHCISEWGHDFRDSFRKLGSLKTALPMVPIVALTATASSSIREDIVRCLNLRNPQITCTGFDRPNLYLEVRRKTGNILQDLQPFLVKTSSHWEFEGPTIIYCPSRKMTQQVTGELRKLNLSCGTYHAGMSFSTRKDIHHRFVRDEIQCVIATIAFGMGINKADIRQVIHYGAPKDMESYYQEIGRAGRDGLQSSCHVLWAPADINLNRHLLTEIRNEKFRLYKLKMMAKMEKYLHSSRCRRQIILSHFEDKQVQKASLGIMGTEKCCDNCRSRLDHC

For orientation: IC50 means the concentration needed to halve the response being measured. High values mean weaker potency, low ones greater potency. Regarding `CCc1c(N2CCN(C(=O)CNC(=O)c3cnccc3O)CC2)c(=O)n2nc(C3=CCOCC3)nc2n1CC(=O)Nc1ccc(C(F)(F)F)cc1Cl` [Example 280, N-(2-(4-(4-(2-((2-Chloro-4-(trifluoromethyl)phenyl)amino)-2-oxoethyl)-2-(3,6-dihydro-2H-pyran-4-yl)-5-ethyl-7-oxo-4,7-dihydro-[1,2,4]triazolo[1,5-a]pyrimidin-6-yl)piperazin-1-yl)-2-oxoethyl)-4-hydroxynicotinamide], the IC50 in experiment [1] and in experiment [2] was under 100 nM throughout.

Regarding `CCc1c(N2CCN(C(=O)CNC(=O)c3cncc(O)c3)CC2)c(=O)n2nc(C3=CCOCC3)nc2n1CC(=O)Nc1ccc(C(F)(F)F)cc1Cl` [Example 281, N-(2-(4-(4-(2-((2-Chloro-4-(trifluoromethyl)phenyl)amino)-2-oxoethyl)-2-(3,6-dihydro-2H-pyran-4-yl)-5-ethyl-7-oxo-4,7-dihydro-[1,2,4]triazolo[1,5-a]pyrimidin-6-yl)piperazin-1-yl)-2-oxoethyl)-5-hydroxynicotinamide], the half-inhibitory concentration (IC50) in experiment [1] and in experiment [2] was under 100 nM in each case.

Regarding `CCc1c(N2CCN(C(=O)CNC(=O)c3cccnc3O)CC2)c(=O)n2nc(C3=CCOCC3)nc2n1CC(=O)Nc1ccc(C(F)(F)F)cc1Cl` [Example 282, N-(2-(4-(4-(2-((2-Chloro-4-(trifluoromethyl)phenyl)amino)-2-oxoethyl)-2-(3,6-dihydro-2H-pyran-4-yl)-5-ethyl-7-oxo-4,7-dihydro-[1,2,4]triazolo[1,5-a]pyrimidin-6-yl)piperazin-1-yl)-2-oxoethyl)-2-hydroxynicotinamide], the IC50 in experiment [1] and in experiment [2] was under 100 nM throughout.

In the case of `CCc1c(N2CCN(C(=O)CNC(=O)c3cn(C)[nH]c3=O)CC2)c(=O)n2nc(C3=CCOCC3)nc2n1CC(=O)Nc1ccc(C(F)(F)F)cc1Cl` [Example 283, N-(2-(4-(4-(2-((2-Chloro-4-(trifluoromethyl)phenyl)amino)-2-oxoethyl)-2-(3,6-dihydro-2H-pyran-4-yl)-5-ethyl-7-oxo-4,7-dihydro-[1,2,4]triazolo[1,5-a]pyrimidin-6-yl)piperazin-1-yl)-2-oxoethyl)-1-methyl-3-oxo-2,3-dihydro-1H-pyrazole-4-carboxamide], the results for the half-maximal inhibitory concentration (IC50) in experiment [1] and in experiment [2] were 100 to 1000 nM and under 100 nM, respectively.

As to `CCc1c(N2CCN(C(=O)CNC(=O)c3cc(F)cc(NC)c3)CC2)c(=O)n2nc(C3=CCOCC3)nc2n1CC(=O)Nc1ccc(C(F)(F)F)cc1Cl` [Example 284, N-(2-(4-(4-(2-((2-Chloro-4-(trifluoromethyl)phenyl)amino)-2-oxoethyl)-2-(3,6-dihydro-2H-pyran-4-yl)-5-ethyl-7-oxo-4,7-dihydro-[1,2,4]triazolo[1,5-a]pyrimidin-6-yl)piperazin-1-yl)-2-oxoethyl)-3-fluoro-5-(methylamino)benzamide], the IC50 in experiment [1] and in experiment [2] was under 100 nM each time.

For `CCc1c(N2CCN(C(=O)CNC(=O)c3ccc(F)c(NC)c3)CC2)c(=O)n2nc(C3=CCOCC3)nc2n1CC(=O)Nc1ccc(C(F)(F)F)cc1Cl` [Example 285, N-(2-(4-(4-(2-((2-Chloro-4-(trifluoromethyl)phenyl)amino)-2-oxoethyl)-2-(3,6-dihydro-2H-pyran-4-yl)-5-ethyl-7-oxo-4,7-dihydro-[1,2,4]triazolo[1,5-a]pyrimidin-6-yl)piperazin-1-yl)-2-oxoethyl)-4-fluoro-3-(methylamino)benzamide], the IC50 in experiment [1] and in experiment [2] was under 100 nM in each case.

For the compound `CCc1c(N2CCN(C(=O)CNC(=O)c3ccc(F)c(N(C)C)c3)CC2)c(=O)n2nc(C3=CCOCC3)nc2n1CC(=O)Nc1ccc(C(F)(F)F)cc1Cl` [Example 286, N-(2-(4-(4-(2-((2-Chloro-4-(trifluoromethyl)phenyl)amino)-2-oxoethyl)-2-(3,6-dihydro-2H-pyran-4-yl)-5-ethyl-7-oxo-4,7-dihydro-[1,2,4]triazolo[1,5-a]pyrimidin-6-yl)piperazin-1-yl)-2-oxoethyl)-3-(dimethylamino)-4-fluorobenzamide], the IC50 in experiment [1] and in experiment [2] was under 100 nM throughout.

Consider `CCc1c(N2CCN(C(=O)CNC(=O)c3cccc(NC)c3F)CC2)c(=O)n2nc(C3=CCOCC3)nc2n1CC(=O)Nc1ccc(C(F)(F)F)cc1Cl` [Example 287, N-(2-(4-(4-(2-((2-Chloro-4-(trifluoromethyl)phenyl)amino)-2-oxoethyl)-2-(3,6-dihydro-2H-pyran-4-yl)-5-ethyl-7-oxo-4,7-dihydro-[1,2,4]triazolo[1,5-a]pyrimidin-6-yl)piperazin-1-yl)-2-oxoethyl)-2-fluoro-3-(methylamino)benzamide], for which the 50% inhibitory concentration (IC50) in experiment [1] and in experiment [2] was under 100 nM each time.

In the case of `CCc1c(N2CCN(C(=O)CNC(=O)c3cccc(N)c3)CC2)c(=O)n2nc(C3=CCOCC3)nc2n1CC(=O)Nc1ccc(C(F)(F)F)cc1Cl` [Example 288, 3-Amino-N-(2-(4-(4-(2-((2-chloro-4-(trifluoromethyl)phenyl)amino)-2-oxoethyl)-2-(3,6-dihydro-2H-pyran-4-yl)-5-ethyl-7-oxo-4,7-dihydro-[1,2,4]triazolo[1,5-a]pyrimidin-6-yl)piperazin-1-yl)-2-oxoethyl)benzamide], the 50% inhibitory concentration (IC50) in experiment [1] and in experiment [2] was under 100 nM each time.

In the case of `CCc1c(N2CCN(C(=O)CNC(=O)c3cc(NC)ccc3F)CC2)c(=O)n2nc(C3=CCOCC3)nc2n1CC(=O)Nc1ccc(C(F)(F)F)cc1Cl` [Example 289, N-(2-(4-(4-(2-((2-Chloro-4-(trifluoromethyl)phenyl)amino)-2-oxoethyl)-2-(3,6-dihydro-2H-pyran-4-yl)-5-ethyl-7-oxo-4,7-dihydro-[1,2,4]triazolo[1,5-a]pyrimidin-6-yl)piperazin-1-yl)-2-oxoethyl)-2-fluoro-5-(methylamino)benzamide], the half-inhibitory concentration (IC50) in experiment [1] and in experiment [2] was under 100 nM throughout.

Turning to `CCc1c(N2CCN(C(=O)CNC(=O)c3cc(O)ccc3F)CC2)c(=O)n2nc(C3=CCOCC3)nc2n1CC(=O)Nc1ccc(C(F)(F)F)cc1Cl` [Example 290, N-(2-(4-(4-(2-((2-Chloro-4-(trifluoromethyl)phenyl)amino)-2-oxoethyl)-2-(3,6-dihydro-2H-pyran-4-yl)-5-ethyl-7-oxo-4,7-dihydro-[1,2,4]triazolo[1,5-a]pyrimidin-6-yl)piperazin-1-yl)-2-oxoethyl)-2-fluoro-5-hydroxybenzamide], the IC50 in experiment [1] and in experiment [2] was under 100 nM each time.

For the compound `CCc1c(N2CCN(C(=O)CNC(=O)c3cc(O)cc(F)c3)CC2)c(=O)n2nc(C3=CCOCC3)nc2n1CC(=O)Nc1ccc(C(F)(F)F)cc1Cl` [Example 291, N-(2-(4-(4-(2-((2-Chloro-4-(trifluoromethyl)phenyl)amino)-2-oxoethyl)-2-(3,6-dihydro-2H-pyran-4-yl)-5-ethyl-7-oxo-4,7-dihydro-[1,2,4]triazolo[1,5-a]pyrimidin-6-yl)piperazin-1-yl)-2-oxoethyl)-3-fluoro-5-hydroxybenzamide], the half-inhibitory concentration (IC50) in experiment [1] and in experiment [2] was under 100 nM in each case.

In the case of `CCc1c(N2CCN(C(=O)CNC(=O)c3ccc(F)c(O)c3)CC2)c(=O)n2nc(C3=CCOCC3)nc2n1CC(=O)Nc1ccc(C(F)(F)F)cc1Cl` [Example 292, N-(2-(4-(4-(2-((2-Chloro-4-(trifluoromethyl)phenyl)amino)-2-oxoethyl)-2-(3,6-dihydro-2H-pyran-4-yl)-5-ethyl-7-oxo-4,7-dihydro-[1,2,4]triazolo[1,5-a]pyrimidin-6-yl)piperazin-1-yl)-2-oxoethyl)-4-fluoro-3-hydroxybenzamide], the 50% inhibitory concentration (IC50) in experiment [1] and in experiment [2] was under 100 nM in each case.

Consider `CCc1c(N2CCN(C(=O)CNC(=O)c3cccc(O)c3F)CC2)c(=O)n2nc(C3=CCOCC3)nc2n1CC(=O)Nc1ccc(C(F)(F)F)cc1Cl` [Example 293, N-(2-(4-(4-(2-((2-Chloro-4-(trifluoromethyl)phenyl)amino)-2-oxoethyl)-2-(3,6-dihydro-2H-pyran-4-yl)-5-ethyl-7-oxo-4,7-dihydro-[1,2,4]triazolo[1,5-a]pyrimidin-6-yl)piperazin-1-yl)-2-oxoethyl)-2-fluoro-3-hydroxybenzamide], for which the IC50 in experiment [1] and in experiment [2] was under 100 nM throughout.

Take `CCc1c(N2CCN(C(=O)CNC(=O)c3c(O)cc(C)oc3=O)CC2)c(=O)n2nc(C3=CCOCC3)nc2n1CC(=O)Nc1ccc(C(F)(F)F)cc1Cl` [Example 295, N-(2-(4-(4-(2-((2-Chloro-4-(trifluoromethyl)phenyl)amino)-2-oxoethyl)-2-(3,6-dihydro-2H-pyran-4-yl)-5-ethyl-7-oxo-4,7-dihydro-[1,2,4]triazolo[1,5-a]pyrimidin-6-yl)piperazin-1-yl)-2-oxoethyl)-4-hydroxy-6-methyl-2-oxo-2H-pyran-3-carboxamide]: the concentration for half-maximal inhibition (IC50) in experiment [1] was 100 to 1000 nM; in experiment [2], over 1000 nM.

In the case of `CCc1c(N2CCN(C(=O)c3cc4ccnn4cn3)CC2)c(=O)n2nc(C3=CCOCC3)nc2n1CC(=O)Nc1ccc(C(F)(F)F)cc1Cl` [Example 296, N-(2-Chloro-4-(trifluoromethyl)phenyl)-2-(2-(3,6-dihydro-2H-pyran-4-yl)-5-ethyl-7-oxo-6-(4-(pyrazolo[1,5-c]pyrimidine-5-carbonyl)piperazin-1-yl)-[1,2,4]triazolo[1,5-a]pyrimidin-4(7H)-yl)acetamide], the IC50 in experiment [1] and in experiment [2] was 100 to 1000 nM each time.

For the compound `CCc1c(N2CCN(C(=O)c3cnc4sc(Br)cc4c3O)CC2)c(=O)n2nc(C3=CCOCC3)nc2n1CC(=O)Nc1ccc(C(F)(F)F)cc1F` [Example 297, 2-(6-(4-(2-Bromo-4-hydroxythieno[2,3-b]pyridine-5-carbonyl)piperazin-1-yl)-2-(3,6-dihydro-2H-pyran-4-yl)-5-ethyl-7-oxo-[1,2,4]triazolo[1,5-a]pyrimidin-4(7H)-yl)-N-(2-fluoro-4-(trifluoromethyl)phenyl)acetamide], the IC50 in experiment [1] and in experiment [2] was under 100 nM throughout.
